The test relates to M. mycetomatis genome strain MM55. Briefly: CLSI M38-A2 based in vitro susceptibility screening (XTT or resazurin), growth at fixed concentration. The test is classed as cell-based, Madurella mycetomatis. Conditions: Madurella mycetomatis; for Percent fungal survival at 100 µM: read-out: Percentage survival at 100um, 100 uM A (second replicate column). In general terms: Formazan colour is commonly taken as a measure of viable cells.

The mark [1] stands for this setting: mean of three replicates, read-out: Percentage survival at 25um, 25 uM mean.
Setting [2] is: replicate A, read-out: Percentage survival at 25um, 25 um A.
[3] abbreviates: replicate B, read-out: Percentage survival at 25um, 25 uM B.
[4] abbreviates: replicate C, read-out: Percentage survival at 25um, 25 uM C.
The mark [5] stands for this setting: first replicate column, read-out: Percentage survival at 100um, 100 uM A.
The mark [6] stands for this setting: mean of three replicates, read-out: Percentage survival at 100um, 100 uM mean.
Where [7] appears, read: second replicate column, read-out: Percentage survival at 100um, 100 uM A.
[8] abbreviates: third replicate column, read-out: Percentage survival at 100um, 100 uM A.
[9] abbreviates: mean of replicates, read-out: Percentage survival at 25um, 25 uM mean.
[10] abbreviates: mean of replicates, read-out: Percentage survival at 100um, 100 uM mean.
[11] abbreviates: replicate 1, read-out: Percentage survival at 100um, 100 uM A (first replicate column).
Setting [12] is: replicate 3, read-out: Percentage survival at 100um, 100 uM A (third replicate column).
[13] abbreviates: replicate 1, read-out: Percentage survival at 100um, 100 uM A.
Where [14] appears, read: replicate 2, read-out: Percentage survival at 100um, 100 uM A.
Setting [15] is: replicate 3, read-out: Percentage survival at 100um, 100 uM A.
The mark [16] stands for this setting: mean of three, M. mycetomatis MM55, read-out: Percentage survival at 25um, 25 uM mean.
The mark [17] stands for this setting: replicate A, M. mycetomatis MM55, read-out: Percentage survival at 25um, 25 um A.
Where [18] appears, read: replicate B, M. mycetomatis MM55, read-out: Percentage survival at 25um, 25 uM B.
Where [19] appears, read: replicate C, M. mycetomatis MM55, read-out: Percentage survival at 25um, 25 uM C.
The mark [20] stands for this setting: mean of three, M. mycetomatis MM55, read-out: Percentage survival at 100um, 100 uM mean.
Setting [21] is: replicate 1, M. mycetomatis MM55, read-out: Percentage survival at 100um, 100 uM A (first replicate column).
Where [22] appears, read: replicate 2, M. mycetomatis MM55.
The mark [23] stands for this setting: replicate 3, M. mycetomatis MM55, read-out: Percentage survival at 100um, 100 uM A (third replicate column).

Like-named read-outs stand apart in the source and are kept apart here.

We go through 17 molecules from PMC8815882, “Screening the pandemic response box identified benzimidazole carbamates, Olorofim and ravuconazole as promising drug candidates for the treatment of eumycetoma” (PLoS Neglected Tropical Diseases, 2022).

On to `Nc1cnn(C2OC(CO)C(O)C2O)c(=O)n1` (stereo not shown) [MMV1580495], for which the activity at 25 µM is, setting by setting: under setting [1], 87.3%; under setting [2], 82%; under setting [3], 95.9%; under setting [4], 84%. Besides, the activity at 100 µM runs as follows: under setting [5], 88.8%; under setting [6], 82%; under setting [7], 84.2%; under setting [8], 72.9%.
`CC(C)(C)NC(=O)[C@@H]1C[C@@H]2CCCC[C@@H]2CN1C[C@@H](O)[C@H](Cc1ccccc1)NC(=O)[C@H](CC(N)=O)NC(=O)c1ccc2ccccc2n1` [MMV637879]: the activity at 25 µM is, setting by setting: under setting [1], 92.5%; under setting [2], 98.2%; under setting [3], 97.6%; under setting [4], 81.5%. Also, the activity at 100 µM under setting [5] is 102%, the activity at 100 µM under setting [6] was determined as 93.3%, the activity at 100 µM under setting [7] stood at 95.3% and the activity at 100 µM under setting [8] is 82.8%.
Regarding `CN1c2ccc(Cl)cc2N(c2ccccc2)C(=O)c2cn(Cc3ccc(CN4CCOCC4)cc3)nc21` [MMV1782222], the activity at 25 µM stood at 61.1% under setting [9], 58.9% under setting [2], 64.9% under setting [3] and 59.6% under setting [4]. The activity at 100 µM is, setting by setting: under setting [10], 60.2%; under setting [11], 52.1%; under setting [12], 58.2%. In addition, the Percent fungal survival at 100 µM (replicate 2) came out at 70.5%.
For the molecule `COc1ccc(CNC(=O)C(NS(=O)(=O)c2ccc3nc(C)sc3c2)C(C)C)cc1` (stereo not shown) [MMV303733], the activity at 25 µM by setting is: under setting [1], 91.8%; under setting [2], 74.6%; under setting [3], 73.6%; under setting [4], 127%. In addition, the activity at 100 µM runs as follows: under setting [6], 75.7%; under setting [11], 82.2%; under setting [12], 67.5%. Under “replicate 2”, the Percent fungal survival at 100 µM was determined as 77.4%.
`NC1C2CC3CC(C2)CC1C3` (stereo not shown) [MMV180402]: the activity at 25 µM reads like this: under setting [1], 83.1%; under setting [2], 84.6%; under setting [3], 88.7%; under setting [4], 76%. Further, the activity at 100 µM by setting is: under setting [5], 78.9%; under setting [6], 78%; under setting [7], 67.8%; under setting [8], 87.1%.
For the molecule `NC[C@H]1OB(O)c2c(OCCCO)cccc21` [MMV1578566], the activity at 25 µM came to 83% under setting [9], 83.4% under setting [2], 92.5% under setting [3] and 72.9% under setting [4]. Also, the activity at 100 µM by setting is: under setting [10], 97.6%; under setting [13], 93.8%; under setting [14], 96.2%; under setting [15], 103%.
In the case of `CC(=N)N1CC[C@H](SC2=C(C(=O)O)N3C(=O)[C@@H]([C@@H](C)O)[C@H]3C2)C1` [MMV1582382], the activity at 25 µM by setting is: under setting [9], 78.4%; under setting [2], 77.3%; under setting [3], 85.2%; under setting [4], 72.8%. The activity at 100 µM runs as follows: under setting [10], 83.2%; under setting [13], 76.4%; under setting [14], 82.9%; under setting [15], 90.3%.
For the molecule `NCc1ccc(S(N)(=O)=O)cc1` [MMV002665], the activity at 25 µM under setting [1] was determined as 85.4%, the activity at 25 µM under setting [2] is 82.7%, the activity at 25 µM under setting [3] was found to be 87.5% and the activity at 25 µM under setting [4] is 86.1%. Further, the activity at 100 µM runs as follows: under setting [6], 90.8%; under setting [11], 98.4%; under setting [12], 95.8%. Besides, the Percent fungal survival at 100 µM (replicate 2) was found to be 78.3%.
As for `O=C(NC1CCCc2c1[nH]c1ccc(Cl)cc21)c1ccccn1` (stereo not shown) [MMV690621], the activity at 25 µM by setting is: under setting [1], 79%; under setting [2], 75.2%; under setting [3], 91.8%; under setting [4], 70.2%. In addition, the activity at 100 µM under setting [5] is -4.95%, the activity at 100 µM under setting [6] was -0.446%, the activity at 100 µM under setting [7] was -2.06% and the activity at 100 µM under setting [8] is 5.67%.
Take `CCCCCCCCC(CP(=O)(O)C(C)N)C(=O)O` (stereo not shown) [MMV1582487]: the activity at 25 µM turned out to be 84.2% under setting [9], 90.3% under setting [2], 86.2% under setting [3] and 76.2% under setting [4]. For the same molecule, the activity at 100 µM reads like this: under setting [10], 95.3%; under setting [13], 85.8%; under setting [14], 103%; under setting [15], 97.5%.
As to `CNC(=O)C1O[C@@H](n2cnc3c(NCc4cccc(I)c4)nc(Cl)nc32)[C@H](O)[C@@H]1O` (stereo partly shown) [MMV1593514], the activity at 25 µM came to 94.9% (mean of replicates, MM55, read-out: Percentage survival at 25um, 25 uM mean); 85.8% (replicate A, MM55, read-out: Percentage survival at 25um, 25 um A); 83.7% (replicate B, MM55, read-out: Percentage survival at 25um, 25 uM B); 115% (replicate C, MM55, read-out: Percentage survival at 25um, 25 uM C). Moreover, the activity at 100 µM by setting is: (mean of replicates, MM55, read-out: Percentage survival at 100um, 100 uM mean) 80.9%; (replicate 1, MM55, read-out: Percentage survival at 100um, 100 uM A) 74.5%; (replicate 2, MM55, read-out: Percentage survival at 100um, 100 uM A) 99.3%; (replicate 3, MM55, read-out: Percentage survival at 100um, 100 uM A) 68.9%.
On to `CCOC(=O)N1CCN(c2ccc(Cl)cc2)CC1` [MMV1578898], for which the activity at 25 µM under setting [9] came out at 83.5%, the activity at 25 µM under setting [2] was 91.8%, the activity at 25 µM under setting [3] turned out to be 91.8% and the activity at 25 µM under setting [4] was found to be 66.9%. Moreover, the activity at 100 µM runs as follows: under setting [10], 47.7%; under setting [13], 38.1%; under setting [14], 63.1%; under setting [15], 42%.
As for `CCc1cc(CCC(=O)Nc2ccccc2O)c(=O)[nH]c1C` [MMV1782106], the activity at 25 µM was 91.9% under setting [1], 84.9% under setting [2], 85.4% under setting [3] and 105% under setting [4]. Also, the activity at 100 µM turned out to be 83.7% under setting [5], 83.9% under setting [6], 82.9% under setting [7] and 85.1% under setting [8].
As for `O=C(c1nc2c(C(F)(F)F)cc(C3CC3)cn2c1Cl)N1CCN([C@H]2CC[C@H](O)CC2)C(=O)C1` [MMV1634396], the activity at 25 µM reads like this: under setting [1], 94.9%; under setting [2], 99.5%; under setting [3], 104%; under setting [4], 81.4%. Moreover, the activity at 100 µM was 92.3% under setting [5], 86.8% under setting [6], 90.6% under setting [7] and 77.4% under setting [8].
Take `NC(=O)c1nccn([C@@H]2O[C@H](CO)[C@@H](O)[C@H]2O)c1=O` [MMV1782104]: the activity at 25 µM was found to be 99.8% under setting [1], 102% under setting [2], 107% under setting [3] and 90.3% under setting [4]. Moreover, the activity at 100 µM was 97.1% under setting [5], 86.1% under setting [6], 97.7% under setting [7] and 63.4% under setting [8].
On to `CC(C)/N=c1\cc2n(-c3ccc(Cl)cc3)c3ccccc3nc-2cc1Nc1ccc(Cl)cc1` [MMV687800], for which the activity at 25 µM under setting [16] was 71%, the activity at 25 µM under setting [17] was 77.2%, the activity at 25 µM under setting [18] turned out to be 68.8% and the activity at 25 µM under setting [19] was 67.2%. The activity at 100 µM is, setting by setting: under setting [20], 71.4%; under setting [21], 65.1%; under setting [23], 73.9%. Besides, the Percent fungal survival at 100 µM under setting [22] came to 75.2%.
On to `CN1CCN(c2ccc3[nH]c(-c4ccc5[nH]c(-c6ccc(O)cc6)nc5c4)nc3c2)CC1` [MMV020752], for which the activity at 25 µM reads like this: under setting [16], 67.2%; under setting [17], 67.7%; under setting [18], 71.6%; under setting [19], 62.2%. The activity at 100 µM under setting [20] was 24.3%, the activity at 100 µM under setting [21] was 53.4% and the activity at 100 µM under setting [23] was 4.7%. Moreover, the Percent fungal survival at 100 µM under setting [22] is 14.6%.
